The data set can be described thus: solvent given as SMILES.

For the setting “in ClCCl”, `c1ccc(N(c2ccccc2)c2ccc(-c3ccc(-c4nc(-c5ccccn5)n(-c5ccccc5)n4)cc3)cc2)cc1` had an emission maximum of 435 nm.
Under “in CO”, `Cc1ccc(-c2nc(-c3ccc(O)cc3)[nH]c2-c2ccc(C)cc2)cc1` displayed an emission maximum of 395 nm.
For `CCC1=C(C)C2=Cc3cc(I)cn3[B-](F)(F)[N+]2=C1C`, the emission maximum stood at 538.5 nm (in C1CCCCC1); 541 nm (in CC(C)=O); 543 nm (in CCO); 540.5 nm (in CCOC(C)=O); 542.5 nm (in CO); 540 nm (in OCC(F)(F)F).
As to `CCCCN(CCCC)c1ccc2c(c1)C#CC#Cc1cc(N(CCCC)CCCC)ccc1C#Cc1cc(c3cc1C#Cc1ccc(C(F)(F)F)cc1C#CC#Cc1cc(C(F)(F)F)ccc1C#C3)C#C2`, the emission maximum reads like this: (in ClCCl) 551 nm; (in c1ccccc1) 499 nm.
In turn, `CC(=O)c1ccc(-c2cnc3nn4ccccc4c3c2)cc1` registered an emission maximum (in C1CCOC1) of 420 nm.
The compound `CCCCCCCCCCCCN1C(=O)c2ccc3c4ccc5c6c(ccc(c7ccc(c2c37)C1=O)c64)C(=O)N(CCCCCCCCCCCC)C5=O` yielded an emission maximum (in CN(C)C=O) of 536 nm.
`O=[N+]([O-])c1ccc(-c2cn3ccc[n+]3[n-]2)cc1`: for the setting “in ClCCl”, the emission maximum was found to be 556 nm.
Take `CCCCCCOc1cc(C=O)c(OCCCCCC)cc1C=O`: the emission maximum (in ClCCl) is 467 nm.
Regarding `COc1ccc(/C=C/C(=O)c2c(O)cc(C)oc2=O)cc1`, the emission maximum is recorded as 488 nm (in CC#N) and 487 nm (in ClCCl).
On to `CN(C)c1ccc(-c2ccc(/C=C/c3ccncn3)cc2)cc1`, for which the emission maximum (in ClCCl) turned out to be 570 nm.
For the compound `CC[Si](C)(C)c1cc2ccc3cccc4ccc(c1C(=O)NC(C)(C)C)c2c34`, the emission maximum (in ClC(Cl)Cl) was 383 nm.
The compound `O=C(O)C1=C/C(=C/C=[N+]2/c3cc(O)c(C[C@@H]4O[C@H](CO)[C@@H](O)C(O)[C@H]4O)cc3C[C@H]2C(=O)O)C[C@H](C(=O)O)N1` (stereo partly specified) registered an emission maximum (in CO) of 611 nm, an emission maximum (in O) of 641 nm, an emission maximum (in OCCO) of 608 nm and an emission maximum (in [2H]O[2H]) of 641 nm.
For `COc1ccc(/C=C/C2=CC(/C=C/c3ccc(OC)cc3)=[O+][B-](OC(C)=O)(OC(C)=O)O2)cc1`, the emission maximum runs as follows: (in C1CCOC1) 518 nm; (in CC#N) 541 nm; (in CC(C)=O) 531 nm; (in CS(C)=O) 548 nm; (in Cc1ccccc1) 510 nm; (in ClC(Cl)Cl) 529 nm. For the setting “in ClCCl”, this compound had an emission maximum of 535 nm.
On to `CCCCCCCCOc1ccc(C#Cc2ccc3oc4ccccc4c3c2)c(OCCCCCCCC)c1`, for which the emission maximum (in ClCCl) is listed as 373 nm.
Compound `O=C1c2ccccc2NCN1Cc1ccccc1` registered an emission maximum (in CC#N) of 416 nm; an emission maximum (in CCCCCCCCCCCCCCCC) of 381 nm; an emission maximum (in CO) of 443 nm; an emission maximum (in ClC(Cl)Cl) of 398 nm; an emission maximum (in c1ccccc1) of 395 nm.
Consider `CC(=O)Nc1ccc2c3c(cccc13)C(=O)c1ccccc1-2`, for which the emission maximum runs as follows: (in CC#N) 539.96 nm; (in CC(C)=O) 526.04 nm; (in CC(C)O) 567.86 nm; (in CCCCOCCCC) 507.1 nm; (in CCOC(C)=O) 520.02 nm; (in CCOCC) 518.13 nm. This compound showed an emission maximum (in CO) of 573.07 nm; an emission maximum (in Cc1ccccc1) of 516 nm; an emission maximum (in Clc1ccccc1) of 520.02 nm; an emission maximum (in N#Cc1ccccc1) of 527.98 nm; an emission maximum (in O=C1CCCCC1) of 526.87 nm.
Turning to `CCCCCCN(CCCCCC)c1ccc(C#Cc2ccc(C#Cc3ccc(-c4ccc(C#Cc5ccc(C#Cc6ccc(N(CCCCCC)CCCCCC)cc6)cc5)cc4)cc3)cc2)cc1`, where the note is “in Cc1ccccc1”, the emission maximum was 433 nm.
In the case of `Cc1cc(-n2c3ccccc3c3cc(C#N)ccc32)ccc1-c1ccc(S(=O)(=O)c2ccccc2)cc1C`, the emission maximum by setting is: (in C1CCOC1) 369.19 nm; (in CC#N) 369.19 nm; (in Cc1ccccc1) 352 nm; (in ClCCl) 369.19 nm.

The record behind these values is the Deep4Chem optical property database.
